Test results: patent US7803824B2, “Use of inhibitors of Jun N-terminal kinases to treat glaucoma” (Alcon, Inc., priority 2004, dated 2010)

Tested on: adult rat retinal ganglion cells (RGC)
Test: Cultured adult rat RGC survival under cytotoxic insults (Example 4)
Format: cell-based
Conditions: 30 min pre-treatment, then 100 μM glutamate for 3 days
Experimental: Adult Sprague-Dawley rats were euthanized by CO2 asphyxiation. Their eyes were enucleated and the retinas isolated. Retinal cells were treated with of papain solution for 25 min at 37° C., then washed 3 times with 5 mL RGC culture medium (Neurobasal medium with various nutrient supplements+1% fetal calf serum). Retinal cells were dispersed by trituration. Cell suspension was placed onto poly-D-lysine- and laminin-coated 8-well chambered culture slides. The cells were then cultured in 95% air/5% CO2 at 37° C.
For glutamate-induced toxicity studies, cells were pre-treated with vehicle or the indicated compounds for 30 minutes, followed by 100 μM glutamate for 3 days.
For trophic factor withdrawal studies, three trophic factors, basic fibroblast growth factor, brain-derived neurotrophic factor, and ciliary neurotrophic factor, were removed from the culture medium. Cells were cultured in this medium with the indicated compounds for 3 days.
At the end of the incubation period, the cells were fixed and labeled for Thy-1, a RGC marker, by immunocytochemistry. Cell survival was quantified by manually counting Thy-1-positive healthy cells in each well.

**Q.** With `C[C@]12N[C@H](Cc3ccccc31)c1ccccc12` [MK801] as the molecule, how does the “RGC survival, glutamate-induced toxicity (Thy-1-positive healthy cells)” value read?
**A.** prevented
